A word on the pA2: it is a measure of antagonist potency on a negative log scale. A word on the EC50: it is the concentration needed to bring the measured effect to its halfway point.

Data on nine compounds can be found in publication PMC5037861 (BMC Research Notes, 2016).

The test system of test [1] is T1, β2-adrenoceptor-GFP Topaz fusion protein.
T1 construct: expressed in transfected cells; host or cells: HEK 293 (transient, polyethylenimine); vector a gift from Prof; Michel Bouvier
The experiment in a line: Confocal microscopy of HEK 293 cells transiently expressing β2-adrenoceptor-GFP Topaz (specificity control). Format: cell-based. The conditions noted are these: for β2-adrenoceptor-GFP endocytosis: isoproterenol 100 nM 30 min, propranolol 1 μM pretreatment; for labeling of cells expressing β2-adrenoceptor-GFP Topaz: B-10665 10 nM, B-10666 100 nM, 30 min.

Test [2] addresses T2, endogenous B2R (Homo sapiens, UniProt P30411).
T2 sequence (P30411 1-391): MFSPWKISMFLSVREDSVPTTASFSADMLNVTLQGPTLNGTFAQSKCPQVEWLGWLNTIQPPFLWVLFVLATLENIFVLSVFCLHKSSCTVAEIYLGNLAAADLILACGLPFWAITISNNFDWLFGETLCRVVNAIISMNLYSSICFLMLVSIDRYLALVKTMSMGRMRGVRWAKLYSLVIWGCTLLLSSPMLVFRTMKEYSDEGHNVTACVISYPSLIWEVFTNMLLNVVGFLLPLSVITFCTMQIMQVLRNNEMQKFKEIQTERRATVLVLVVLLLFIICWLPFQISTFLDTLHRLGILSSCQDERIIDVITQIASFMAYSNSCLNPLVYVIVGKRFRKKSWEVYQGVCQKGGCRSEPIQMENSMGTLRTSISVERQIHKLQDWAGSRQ
On the set-up: The human umbilical vein is a contractile bioassay for the endogenous B2R; from tissue; host or cells: human isolated umbilical vein (A2). To be noted: cited from earlier work; for pA2: antagonism of BK-induced contraction.

The target in test [3] is T3, human B2R (Homo sapiens, UniProt P30411).
T3 construct: expressed in transfected cells; host or cells: HEK 293a
T3 sequence (P30411 1-391): T2 sequence (P30411 1-391)
The experiment in a line: Competition of [3H]BK (3 nM) binding to HEK 293a cells stably expressing myc-tagged human B2R. To be noted: from binding competition IC50 values.
From the text: Values are the means ± SEM. of the number of duplicate determinations indicated by n. Average specific binding without competitor (100 %) averaged 133.8 fmol/well.

Test [4] concerns T4, rabbit B2R-GFP.
T4 construct: expressed in transfected cells; host or cells: HEK 293
The experiment in a line: Confocal microscopy of HEK 293 cells stably expressing B2R-GFP. Format: cell-based. The conditions noted are these: for infrared labeling of cells: followed by rinsing.

Test [5] has as its target T2, endogenous B2R. The experiment in a line: Human isolated umbilical vein contractility assay. To be noted: agonist contraction; based on an extrapolated concentration-effect curve. Also noted: The human umbilical vein is a contractile bioassay for the endogenous B2R; from tissue; host or cells: human isolated umbilical vein (A2); slices of human umbilical cord (A8). Here is the method: Local ethics review boards approved the anonymous use of segments of human umbilical cords obtained following elective cesarean sections; informed consent was obtained from the mothers. Novel Cy-7 conjugated B2R ligands were assayed via the contraction of the human isolated umbilical vein [9, 10]. Cumulative concentration effect curves were constructed for the agonist version and its potency compared to that of BK. […] Results are presented as mean ± SEM. Radioligand binding data were fitted by nonlinear regression to a one-site competition equation using a least-square method (Prism 5.0, GraphPad Software Inc., San Diego, CA, USA) and IC50 values with their 95 % confidence limits were calculated from this procedure. The same computer program was used to draw concentration-effect curves (least square fitting of sigmoidal dose–response equation with variable slope) and to derive contractile EC50 values.

The test system of test [6] is T5, human myc-tagged B2Rs.
T5 construct: expressed in transfected cells; host or cells: HEK 293a
The test can be described thus: Cytofluorometry of detached HEK 293a cells stably expressing human myc-tagged B2Rs. Format: cell-based. Here is the method:
A subclone of HEK 293 cells, called HEK 293a, originally obtained from Sigma-Aldrich was used in these experiments, either as a non-transfected cell type or as one stably expressing myc-tagged human B2Rs. These cells were grown in Dulbecco’s modified Eagle’s medium supplemented with 10 % fetal bovine serum, 1 % L-glutamine, and 1 % penicillin–streptomycin stock solutions (100×). Cells were detached using the protease-free Cell Dissociation Buffer (Invitrogen), incubated in D-MEM without serum at 37 °C for 30 min under agitation in the presence of a Cy7-conjugated ligands and other drugs, rapidly centrifuged (30 s, 11,000g) and resuspended in phosphate buffered saline. Then, the fluorescence of the cell suspensions was assessed using the BD SORP LSR II cell analyzer for the uptake of the as a function of stimulation and transgene expression. The cytofluorometry results were analyzed using the BD FACS DIVA software.

Test [7] deals with T3, human B2R. The test can be described thus: IVIS infrared fluorescence imaging of cell wells, HEK 293a cells expressing human myc-B2R. The class given is cell-based. The conditions noted are these: 1–10 nM, 30 min, 37 °C. The source says: (§1) The apparatus was set in fluorescence mode with filters at 675 nm (excitation) and 831 nm (emission), medium binning and 60 s exposure time. This experiment exploited HEK 293a cells grown in 24-well plates that stably expressed either human or rat B2R sequences N-terminally tagged with the myc epitope. Expression of these receptors as a function of pharmacologic treatment was controlled in separate plates of cells that were not fixed or permeabilized using the binding of anti-myc monoclonal antibody (clone 4A6, Millipore, dilution 1:1000) added along goat horseradish peroxidase-conjugated anti-mouse IgG antibodies (Santa Cruz, dilution 1:1000). […] The resulting blue precipitate was photographed at the macroscopic scale.

Test [8] concerns T6, rat B2R.
T6 construct: expressed in transfected cells; host or cells: HEK 293a
The experiment in a line: IVIS infrared fluorescence imaging of cell wells, HEK 293a cells expressing rat myc-B2R. Format: cell-based. The conditions noted are these: 1–10 nM, 30 min, 37 °C.
From the text: as §1

Test [9] has as its target T2, endogenous B2R. The test can be described thus: IVIS infrared fluorescence imaging of slices of human umbilical cord. On the set-up: The human umbilical vein is a contractile bioassay for the endogenous B2R; from tissue; host or cells: human isolated umbilical vein (A2); slices of human umbilical cord (A8). To be noted: up to 250 nM, data not shown.

Consider `CC(C)NCC(O)c1ccc(O)c(O)c1` (centres unmarked) [isoproterenol, reference compound], for which the β2-adrenoceptor-GFP endocytosis result in test [1] was “the receptors are then translocated into endosomes”.

In the case of FTC-B-9430, in test [2], the pA2 is 6.96.

`CN1C(=CC=C2C=C(C=CC3=[N+](CCCCCC(=O)N[C@H](CCCNC(=N)N)C(=O)N[C@@H](CCCNC(=N)N)C(=O)N4CCC[C@H]4C(=O)N4C[C@H](O)C[C@H]4C(=O)NCC(=O)N[C@H](C(=O)N[C@@H](CO)C(=O)N4[C@H](C(=O)N[C@H](C(=O)N[C@@H](CCCNC(=N)N)C(=O)O)C5Cc6ccccc6C5)C[C@@H]5CCCC[C@@H]54)C4Cc5ccccc5C4)c4ccccc4C3(C)C)CCC2)C(C)(C)c2ccccc21` [Peptide B-10666, Cy7-B-9972]: the “loss of affinity vs. parent peptide” value in test [3] is listed as ~ 35 fold. Besides, the “infrared labeling of cells” value in test [4] (30 min, 37 °C) is “did not label untransfected cells or icatibant-pretreated receptor-expressing cells”. Moreover, the “endocytosis of B2R-GFP” value in [4] (30 min, 37 °C, live cells) is given as “determined the endocytosis of a fraction of the plasma membrane receptors”. Also, the “labeling of cells expressing β2-adrenoceptor-GFP Topaz” value in [1] was “Lack of labeling”. For the same compound, in test [5], the “loss of potency vs. BK” value is reported as 4240 fold.

Turning to “fluorescein-5-thiocarbamoyl (FTC)-B-9972 [FTC-B-9972]”, the EC50 in test [2] (contraction) is 0.108 µM.

On to `N=C(N)NCCC[C@@H](N)C(=O)N[C@@H](CCCNC(=N)N)C(=O)N1CCC[C@H]1C(=O)N1C[C@H](O)C[C@H]1C(=O)NCC(=O)N[C@H](C(=O)N[C@@H](CO)C(=O)N1[C@H](C(=O)N[C@H](C(=O)N[C@@H](CCCNC(=N)N)C(=O)O)C2Cc3ccccc3C2)C[C@@H]2CCCC[C@@H]21)C1Cc2ccccc2C1` [Peptide B-9972, D-Arg-[Hyp^3,Igl^5,Oic^7,Igl^8]-BK, reference compound], for which, in test [3], the “loss of affinity vs. parent peptide” value was “~ twofold”.

Regarding `CN1C(=CC=C2C=C(C=CC3=[N+](CCCCCC(=O)N[C@H](CCCNC(=N)N)C(=O)N[C@@H](CCCNC(=N)N)C(=O)N4CCC[C@H]4C(=O)N4C[C@H](O)C[C@H]4C(=O)NCC(=O)N[C@H](C(=O)N[C@@H](CO)C(=O)N[C@@H](C(=O)N4[C@H](C(=O)N[C@@H](CCCNC(=N)N)C(=O)O)C[C@@H]5CCCC[C@@H]54)C4Cc5ccccc5C4)C4Cc5ccccc5C4)c4ccccc4C3(C)C)CCC2)C(C)(C)c2ccccc21` [Peptide B-10665, Cy7-B-9430], in [3], the “loss of affinity vs. parent peptide” value was “about equipotent to its parent peptide”. In [6] (30 min, 37 °C, detached intact cells), the “binding detected by infrared fluorescence (cell labeling)” value was “specific binding that plateaued in the low nanomolar range”. In [4] (30 min, 37 °C), the “infrared labeling of cells” value was “labelled essentially plasma membranes in the infrared if and only if B2R-GFP was expressed”. The “labeling of cells expressing β2-adrenoceptor-GFP Topaz” value in [1] is reported as “Lack of labeling”. In addition, the “infrared staining of cell wells” value in test [7] was “stained the cell wells (from a 24-well plate) in a concentration-dependent manner”; in test [8], “more so for the rat construction”. In [9], the “detection of endogenous B2R” value is “could not detect endogenous B2R presence”.

Take `N=C(N)NCCC[C@@H](N)C(=O)N[C@@H](CCCNC(=N)N)C(=O)N1CCC[C@H]1C(=O)N1C[C@H](O)C[C@H]1C(=O)NCC(=O)N[C@H](C(=O)N[C@@H](CO)C(=O)N[C@@H](C(=O)N1[C@H](C(=O)N[C@@H](CCCNC(=N)N)C(=O)O)C[C@@H]2CCCC[C@@H]21)C1Cc2ccccc2C1)C1Cc2ccccc2C1` [Peptide B-9430, D-Arg-[Hyp^3,Igl^5,D-Igl^7,Oic^8]-BK]: the pA2 in test [2] is listed as 7.7.

Consider icatibant [reference compound], for which the “competition of B-10665 binding” value in test [6] (icatibant applied 15 min before B-10665) was “extensive competition”. In addition, the “prevention of B-10665 (10 nM) plasma membrane fluorescence” value in [4] (pretreatment of B2R-GFP-expressing cells) is listed as “prevented”.

Take `CC(C)NCC(O)COc1cccc2ccccc12` (centres unmarked) [propranolol, reference compound]: the β2-adrenoceptor-GFP endocytosis result in test [1] is “agonist-induced endocytosis was prevented”.
